From PMC11597817, “Modulation of Multispecific Transporters by Uncaria tomentosa Extract and Its Major Phytoconstituents” (Pharmaceutics, 2024)
Read-outs that look alike come from different tables or passages of the source.

Target: T1, BCRP (Homo sapiens, UniProt Q9UNQ0)
T1 construct: The cDNA encoding respective transporters were synthetized and cloned by GenScript; host or cells: HEK293 (lentiviral transduction), membrane vesicles
T1 sequence (Q9UNQ0 1-655): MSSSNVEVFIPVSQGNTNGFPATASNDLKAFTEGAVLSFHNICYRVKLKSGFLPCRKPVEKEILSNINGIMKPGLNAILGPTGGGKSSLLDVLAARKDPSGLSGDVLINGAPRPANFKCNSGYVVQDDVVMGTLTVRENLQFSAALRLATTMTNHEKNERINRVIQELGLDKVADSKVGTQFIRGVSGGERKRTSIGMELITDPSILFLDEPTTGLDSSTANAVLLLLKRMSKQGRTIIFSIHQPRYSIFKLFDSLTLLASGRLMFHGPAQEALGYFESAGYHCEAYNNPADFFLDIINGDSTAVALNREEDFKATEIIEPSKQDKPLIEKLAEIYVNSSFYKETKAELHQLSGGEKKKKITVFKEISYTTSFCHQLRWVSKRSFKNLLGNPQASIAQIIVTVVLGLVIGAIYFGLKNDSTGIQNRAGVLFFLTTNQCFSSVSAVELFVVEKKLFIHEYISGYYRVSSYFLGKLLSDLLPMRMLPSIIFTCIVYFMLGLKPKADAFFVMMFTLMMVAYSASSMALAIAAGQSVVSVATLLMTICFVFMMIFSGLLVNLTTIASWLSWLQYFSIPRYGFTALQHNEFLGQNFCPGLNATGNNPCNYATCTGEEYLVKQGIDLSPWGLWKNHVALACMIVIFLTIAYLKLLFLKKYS
Experiment: Vesicular transport inhibition assay, BCRP membrane vesicles
Type: biochemical
Settings: for Igut/IC50 ratio: BCRP, Igut = dose/250 mL, 500 mg dose of UT extract, ICH M12 cut-off 10; for IC50: oxindole alkaloids, substrate E3S, read-out: IC50 (95% CI of IC50)
Text: The human embryonic kidney 293 (HEK293) cell line was purchased from Invitrogen/ThermoFisher (Waltham, MA, USA). Madin–Darby canine kidney II (MDCKII) wild type cells were obtained from the European Collection of Authenticated Cell Cultures (ECACC catalog no. 00062107). HEK293 cells overexpressing the human uptake OATP1B1 (NCBI Reference Sequence: NM_006446.4), OATP1B3 (NM_019844), OATP2B1 (NM_007256), OATP1A2 (NM_134431), OAT1-3 (BC033682.1; NM_006672.3; BC022387), OCT1-3 (BC126364.1; NM_003058; NM_021977), OCTN1 (NM_003059.3), NTCP (NM_003049.3), MATE1 (NM_018242.3), MATE2K (NM_001099646.2), ENT4 (NM_001040661.1), SGLT2 (AJ133127.1), ASCT1/2 (NM_003038.5; NM_005628.3), LAT1/2 (NM_003486.6; NM_012244.4), and THTR1/2 (NM_006996; NM_025243) and mock and human efflux BCRP (NM_004827.2), BSEP (NM_003742.2), MDR1 (NM_000927.4), and MRP1-5 (NM_004996; NM_000392.4; BC137347.1; NM_005845.4; NM_005688.2) transporters as well as MDCKII overexpressing human ENT1/2 (NM_001078177; NM_001532.2) and URAT1 (BC053348) transporters were created by lentiviral transduction. The cDNA encoding respective transporters were synthetized and cloned by GenScript (Piscataway, NJ, USA). The production of lentivirus supernatants, the transduction of the cells, cloning, functional characterization, and validation were performed by Charles River Laboratories Hungary Kft. (Budapest, Hungary).
Membrane vesicles were prepared from ABC transporter-overexpressing HEK293 cells by Charles River Laboratories Hungary Kft. as described previously in detail. Vesicles were frozen in liquid nitrogen and stored at −80 °C.
Vesicular transport inhibition assays were performed using a rapid filtration technique. In brief, the appropriate amount of the protein of each membrane vesicle was mixed with either the extract or isopteropodine, mitraphylline, or uncarine D at one concentration or with their half dilution series from 150 µg/mL or from 100 µM, the suitable transporter substrate, and the assay buffer on ice. Reaction mixtures were preincubated for 15 min at 37 °C with shaking at 250 rpm. Following preincubation, 4 mM Mg-ATP or AMP was added and incubated according to Table S3. Vesicular transport was terminated by adding an ice-cold washing buffer, and the reaction mix was transferred to a MSFBN6B10 filter plate (Merck) for filtration. The filter plates were then dried at 40 °C for 4 h, and radiolabeled substrates retained in the vesicles were detected by liquid scintillation counting as described above. For fluorescent substrates, accumulation was measured with a Clariostar^plus microplate reader (BMG Labtech GmbH, Ortenberg, Germany).
The transporter-mediated uptake and ATP-dependent transport were determined by subtracting the activity of the control cell/transporter abundant-membrane in the presence of AMP from the activity of the transporter-overexpressing cell/transporter-abundant membrane in the presence of ATP. The relative transporter-specific accumulation was expressed as the percent of DMSO activity. The results were presented as the mean ± SEM from 3 parallels. More than a 20% reduction in transport activity was considered as inhibition. For the IC50 determination, dose–response curves were fitted using a 4-parameter nonlinear model in GraphPad Prism version 9.0. Confidence intervals (CIs) of 95% were also determined.
Table S3 – Vesicular transport inhibition assay details.
These parameters were set during previous validations. TC: taurocholic acid, E3S: estrone 3 -sulfate, […]

| Structure (SMILES) | Igut/IC50 ratio | Igut/IC50 ratio (listed as Isopteropodine) | IC50 (listed as Isopteropodine) [µM] | IC50 [µM] |
| --- | --- | --- | --- | --- |
| COC(=O)C1=CO[C@@H](C)[C@@H]2CN3CC[C@@]4(C(=O)Nc5ccccc54)[C@@H]3C[C@H]12 [isopteropodine] | < 10 | 0.42 | 54.6 | 54.6 |
| COC(=O)C1=CO[C@@H](C)[C@H]2CN3CC[C@]4(C(=O)Nc5ccccc54)[C@@H]3C[C@H]12 [mitraphylline] | < 10 |  |  |  |
